Where two headings read alike, the source gives them in different places.
Tests used:
[1] = system: full length SMN2 minigene mRNA (HEK293H cells stably transfected with SMN2-A minigene); assay: RT-qPCR assay for SMN2 minigene pre-mRNA splicing in cultured cells; assay type: cell-based; settings: Homo sapiens, HEK293-H, 24 hours
[2] = system: SMN protein in SMA patient fibroblast cells (GM03813); assay: SMN protein assay (HTRF) in cultured cells; assay type: cell-based; settings: Homo sapiens, SMA Type 1 patient fibroblasts, 48 hours; for EC (1.5-fold): concentration producing 1.5 times SMN protein vs vehicle, read-out: EC1.5x SMN protein; for maximal fold induction: relative to vehicle control, read-out: max. fold increase of SMN protein
Procedure: The SMN HTRF (homogeneous time resolved fluorescence) assay is used to quantify the level of SMN protein in SMA patient fibroblast cells treated with test compounds. Materials used and respective sources are listed below in Table 4.
Cells are thawed and cultured in DMEM-10% FBS for 72 hours. Cells are trypsinized, counted and re-suspended to a concentration of 25,000 cells/mL in DMEM-10% FBS. The cell suspensions are plated at 5,000 cells per well in a 96 well microtiter plate and incubated for […]. […] 1 μL of test compound solution is transferred to cell-containing wells and cells are incubated for 48 hours in a cell culture incubator (37° C., 5% CO2, 100% relative humidity). Triplicate samples are set up for each test compound concentration. After 48 hours, the supernatant is removed from the wells and 25 μL of the RIPA lysis buffer, containing protease inhibitors, is added to the wells and incubated with shaking at room temperature for 1 hour. 25 μL of the diluent is added and then 35 μL of the resulting lysate is transferred to a 384-well plate, where each well contains 5 μL of the antibody solution (1:100 dilution of anti-SMN d2 and anti-SMN cryptate in SMN reconstitution buffer). The plate is centrifuged for 1 minute to bring the solution to the bottom of the wells, then incubated overnight at room temperature. Fluorescence for each well of the plate at 665 nm and 620 nm is measured on an EnVision multilabel plate reader (Perkin-Elmer).
The normalized fluorescence signal is calculated for each sample, Blank and vehicle control well by dividing the signal at 665 nm by the signal at 620 nm. Normalizing the signal accounts for possible fluorescence quenching due to the matrix effect of the lysate. The ΔF value (a measurement of SMN protein abundance as a percent value) for each sample well is calculated by subtracting the normalized average fluorescence for the Blank control wells from the normalized fluorescence for each sample well, then dividing this difference by the normalized average fluorescence for the Blank control wells and multiplying the resulting value by 100. The ΔF value for each sample well represents the SMN protein abundance from test compound-treated samples. The ΔF value for each sample well is divided by the ΔF value for the vehicle control wells to calculate the fold increase in SMN protein abundance relative to the vehicle control. Table 5 provides EC1-5× concentrations for SMN protein expression that was obtained from the 7-point concentration data generated according to the above procedure for particular compounds of the present invention.
Table 6 provides the maximum fold increase of SMN protein that was obtained from the 7-point concentration data generated according to the above procedure for particular compounds of the present invention

[3] = Table 3 (title: production of full length SMN2 minigene mRNA), read-out: EC1.5x SMN protein

## Cc1nc2ncc(-c3cc(=O)n4cc(N5CCNC6(CC6)C5)ccc4n3)cn2n1 [Example 13, 7-(4,7-diazaspiro[2.5]octan-7-yl)-2-(2-methyl-[1,2,4]triazolo[1,5-a]pyrimidin-6-yl)pyrido[1,2-a]pyrimidin-4-one]
[1]; concentration increasing full length SMN2 minigene mRNA 1.5-fold vs vehicle, read-out: EC1.5x minigene
  EC (1.5-fold): 2.55 µM
[2]
  EC (1.5-fold): 14.1 µM
  maximal fold induction: 1.52

## Cc1nc2ccc(-c3cc(=O)n4cc(N5CCN6CCC[C@@H]6C5)ccc4n3)nn2n1 [Example 36, 7-[(8aR)-3,4,6,7,8,8a-hexahydro-1H-pyrrolo[1,2-a]pyrazin-2-yl]-2-(2-methyl-[1,2,4]triazolo[1,5-b]pyridazin-6-yl)pyrido[1,2-a]pyrimidin-4-one]
[1]; [3]
  EC (1.5-fold): 0.0158 µM
[2]
  EC (1.5-fold): 0.0997 µM
  maximal fold induction: 1.92

## Cc1nc2ccc(-c3cc(=O)n4cc(N5CCN[C@@H](C)C5)cc(C)c4n3)nn2n1 [Example 45, 9-methyl-7-[(3S)-3-methylpiperazin-1-yl]-2-(2-methyl-[1,2,4]triazolo[1,5-b]pyridazin-6-yl)pyrido[1,2-a]pyrimidin-4-one]
[1]; [3]
  EC (1.5-fold): 0.0008 µM
[2]
  EC (1.5-fold): 0.009 µM
  maximal fold induction: 2.04

## Cc1nc2ccc(-c3cc(=O)n4cc(N5CC6(CCNC6)C5)cc(C)c4n3)nn2n1 [Example 48, 7-(2,7-diazaspiro[3.4]octan-2-yl)-9-methyl-2-(2-methyl-[1,2,4]triazolo[1,5-b]pyridazin-6-yl)pyrido[1,2-a]pyrimidin-4-one]
[1]; [3]
  EC (1.5-fold): 0.168 µM
[2]
  EC (1.5-fold): 1.32 µM
  maximal fold induction: 1.68

## Cc1nc2ccc(-c3cc(=O)n4cc(N5C[C@@H](C)N[C@@H](C)C5)cc(C)c4n3)nn2n1 [Example 26, 7-[(3R,5S)-3,5-dimethylpiperazin-1-yl]-9-methyl-2-(2-methyl-[1,2,4]triazolo[1,5-b]pyridazin-6-yl)pyrido[1,2-a]pyrimidin-4-one]
[1]; [3]
  EC (1.5-fold): 0.0483 µM
[2]
  EC (1.5-fold): 0.225 µM
  maximal fold induction: 1.88

## Cc1nc2ccc(-c3cc(=O)n4cc(N5CCNC6(CC6)C5)ccc4n3)nn2n1 [Example 44, 7-(4,7-diazaspiro[2.5]octan-7-yl)-2-(2-methyl-[1,2,4]triazolo[1,5-b]pyridazin-6-yl)pyrido[1,2-a]pyrimidin-4-one]
[1]; [3]
  EC (1.5-fold): 0.0578 µM
[2]
  EC (1.5-fold): 0.265 µM
  maximal fold induction: 2.02

## Cc1nc2ncc(-c3cc(=O)n4cc(N5CCN[C@H](C)C5)ccc4n3)cn2n1 [Example 24, 7-[(3R)-3-methylpiperazin-1-yl]-2-(2-methyl-[1,2,4]triazolo[1,5-a]pyrimidin-6-yl)pyrido[1,2-a]pyrimidin-4-one]
[1]; [3]
  EC (1.5-fold): 0.0348 µM
[2]
  EC (1.5-fold): 0.121 µM
  maximal fold induction: 1.87

## Cc1nc2ccc(-c3cc(=O)n4cc(N5C[C@H]6CN(C)C[C@H]6C5)cc(C)c4n3)nn2n1 [Example 29, 7-[(3aS,6aR)-2-methyl-1,3,3a,4,6,6a-hexahydropyrrolo[3,4-c]pyrrol-5-yl]-9-methyl-2-(2-methyl-[1,2,4]triazolo[1,5-b]pyridazin-6-yl)pyrido[1,2-a]pyrimidin-4-one]
[1]; [3]
  EC (1.5-fold): 0.0008 µM
[2]
  EC (1.5-fold): 0.0077 µM
  maximal fold induction: 1.77

## Cc1nc2ccc(-c3cc(=O)n4cc(N5CC6(CN(C)C6)C5)ccc4n3)nn2n1 [Example 46, 7-(6-methyl-2,6-diazaspiro[3.3]heptan-2-yl)-2-(2-methyl-[1,2,4]triazolo[1,5-b]pyridazin-6-yl)pyrido[1,2-a]pyrimidin-4-one]
[1]; [3]
  EC (1.5-fold): 0.003 µM
[2]
  EC (1.5-fold): 0.0314 µM
  maximal fold induction: 1.75

## Cc1nc2ccc(-c3cc(=O)n4cc(N5CC[C@@H](N(C)C)C5)ccc4n3)nn2n1 [Example 41, 7-[(3R)-3-(dimethylamino)pyrrolidin-1-yl]-2-(2-methyl-[1,2,4]triazolo[1,5-b]pyridazin-6-yl)pyrido[1,2-a]pyrimidin-4-one]
[1]; [3]
  EC (1.5-fold): 0.163 µM
[2]
  EC (1.5-fold): 0.207 µM
  maximal fold induction: 1.75

Source: US10208067B2, “Compounds for treating spinal muscular atrophy” (Hoffmann-La Roche Inc., priority 2015, dated 2019)
